Results taken from patent US20240228481A1, “NOVEL SULFONAMIDE SERIES OF QR2 INHIBITORS TO TACKLE OXIDATIVE STRESS AND COGNITIVE DECLINE” (CARMEL HAIFA UNIVERSITY ECONOMIC CORPORATION LTD., priority 2021, published 2024).
Counter-ions that a name gives are not always drawn.

Key:
5×FAD mice [1] = assay: Weight, drinking rate and wellbeing of 5×FAD mice under treatment in drinking water; settings: for average weight: 25 days, drinking water
5×FAD mice [2] = assay: Immunohistochemistry of CA1 in 5×FAD mice (4-HNE, amyloid β, p-Tau, Iba1); type: in vivo, mouse; settings: 1 month drinking
Experimental: A week after the completion of all behavioral experiments, 5×FAD mice were anesthetized with isoflurane, and once fully anesthetized, were transcardially perfused with 4% paraformaldehyde (PFA), dilutes in […] phosphate buffered saline (PBS, Sigma-Aldrich). Brains were then briefly removed and placed in chilled, 4% PFA for 48 h, followed by immersion in 30% sucrose in 0.1 M PBS for a further 48 h. Brains were then stored at −80° C., until they were sliced into 40 μm coronal sections using a Leica CM 1950 cryostat. Slices were then washed ×3 in PBS and blocked for 1 h at RT using 10% normal donkey serum (DNS) and 0.2% triton (Sigma-Aldrich) in PBS. Antibodies, including 4-HNE (1:500, AbCam, ab48506), Iba1 (1:2,000, AbCam, ab5076), phospho-tau (1:1,000, Thermo, MN1020) and amyloid R (1:1,000, AbCam, ab201060) diluted in PBS with 10% DNS were incubated at 4° C. overnight. The next day, the slices were washed ×3 times in PBS, and secondary antibodies including donkey anti goat Alexa Fluor 568 (AbCam, ab175704), donkey anti-mouse Cy 5 (Jackson Immuno Research, 715-175-151) and donkey anti-rabbit DyLight 488 (AbCam, ab98488) all diluted 1:500 in PBS with 1% BSA, were applied to the slices at RT for 2 h. Following the incubation, the slices were washed ×3 times in PBS, mounted onto glass slides, were uniformly covered in DAPI containing Vectashield (H-1200) and coverslips were added. Images were then taken using a confocal microscope (Olympus IX83), with identical acquisition parameters across every sample per antibody. Three slices were used per mouse per antibody, with images taken of dorsal CA1 (Bregma: −1.58 mm to −2.30 mm; with each antibody having a slice from anterior, medial and posterior regions of this range) using a ×20 objective, acquiring two 800×800 pixel images over as many Z levels possible per slice (Z-stack of the whole section). Analysis of the images was done blind, using Imaris (Bitplane) software. Surface reconstruction module was used to extract the data as volumes and signal intensities. Marker volume or intensity were normalized to the corresponding brain volume. This was done in order to normalize the marker volumes to variations in Z-stack volumes and/or changes to shape and size that needed to be performed during analysis due to debris, vasculature, corpus callosum elimination, or any other obstructions or changes in shape. The normalized value was averaged for each triplicate.
Following the completion of behavioral experiments, the inventors wished to assess brain pathologies associated with AD present in the 5×FAD mice used. Therefore, 5 days following the completion of the last behavioral experiment, and 1 month following the start of YB-537 consumption, all the mice were sacrificed and coronal sections of their fixed brains were made and used for immunohistochemistry. Since the CA1 region of the hippocampus is affected early on in the pathogenesis of AD, and this brain region is involved in the behavioral paradigms used here, the inventors acquired images of CA1. This was done with an Olympus IX83 confocal microscope using the same settings, antibodies and exposures (all slices and samples were prepared by the same experimenter and all images taken by the same experimenter) in all mice and a separate blind experimenter, unaware of the experimental conditions or details, measured and analyzed the signal detected using Imaris (Bitplane) software (see methods). For each mouse, three coronal sections were used per antibody. In each section, the same region of CA1 was acquired, using the same image frame size and resolution, at all possible depths of the section (Z-stack of the whole section), to allow measurement of the fluorescent antibody marker volume, which was normalized to the brain volume from which it was taken. First, the inventors measured oxidative stress, as indicated by lipid peroxidation product, 4-Hydroxynonenal (4-HNE, antibody: AbCam, ab48506). […]

In the case of `Cc1ccc(-c2cn3cccc(C)c3n2)cc1S(=O)(=O)N1CCNCC1` [YB-537, 8-methyl-2-(4-methyl-3-(piperazin-1-ylsulfonyl)phenyl)imidazo[1,2-a]pyridine hydrochloride], the “adverse effects during month-long treatment” value (5×FAD mice [1]; 5×FAD both sexes, 50 mg/kg in drinking water) is reported as “no adverse effects were seen”, the average drinking rate (5×FAD mice [1]; 5×FAD females) is reported as 0.170 ± 0.011 mL/g/day and the average weight (5×FAD mice [1]; 5×FAD females) is reported as 22.76 ± 0.192 g. For the same molecule, the average drinking rate (5×FAD mice [1]; 5×FAD males) was 0.170 ± 0.035 mL/g/day, the average weight (5×FAD mice [1]; 5×FAD males) was 32.56 ± 0.279 g and the “4-HNE volume normalized to μm^3 of brain, CA1” value (5×FAD mice [2]; 5×FAD females) was 0.053±0.005. The “4-HNE volume normalized to μm^3 of brain, CA1” value (5×FAD mice [2]; 5×FAD males) was 0.053±0.005, the “Amyloid β volume normalized to μm^3 of brain, CA1” value (5×FAD mice [2]; 5×FAD males) was 0.038±0.004 and the “Volume of Iba1 normalized to μm^3 of brain, CA1” value (5×FAD mice [2]; 5×FAD males) was 0.038±0.003. The “Volume of p-Tau normalized to μm^3 of brain, CA1” value (5×FAD mice [2]; 5×FAD males) was 0.064±0.006, the “sum of the intensity of Iba1 positive signal normalized to μm^3 of brain, CA1” value (5×FAD mice [2]; 5×FAD males) was 74.09±6.198 and the “Volume of Iba1 normalized to μm^3 of brain, CA1” value (5×FAD mice [2]; 5×FAD total population) was 0.032±0.002. For the same molecule, the “sum of the intensity of Iba1 positive signal normalized to μm^3 of brain, CA1” value (5×FAD mice [2]; 5×FAD total population) was 63.57±5.251.
